From patent publication US20050113450A1, “Antibacterial agents” (priority 2002, published 2005)
≈ marks a conversion by molar mass, not a printed value.

Tested on: SA 9218
Assay: MIC by standard agar dilution method
Assay type: cell-based
Settings: Mueller Hinton agar, 10^4 to 10^5 cells per spot, incubated overnight at 35° C., lowest concentration that inhibits visible growth
Description: The antibacterial agents of this invention have useful activity against a variety of organisms. The in vitro activity of compounds of this invention can be assessed by standard testing procedures such as the determination of minimum inhibitory concentration (MIC) by agar dilution as described in “Approved Standard. Methods for Dilution Antimicrobial Susceptibility Tests for Bacteria That Grow Aerobically”, 3rd. ed., published 1993 by the National Committee for Clinical Laboratory Standards, Villanova, Pa., USA. The in vitro MICs of test compounds were determined by a standard agar dilution method. A stock drug solution of each analog was prepared in the preferred solvent, usually DMSO:H2O (1:3). Serial 2-fold dilutions of each sample are made using 1.0 ml aliquots of sterile distilled water. To each 1.0 ml aliquot of drug was added 9 ml of molten Mueller Hinton agar medium. The drug-supplemented agar was mixed, poured into 15×100 mm petri dishes, and allowed to solidify and dry prior to inoculation. Vials of each of the test organisms are maintained frozen in the vapor phase of a liquid nitrogen freezer. Test cultures are grown overnight at 35° C. on the medium appropriate for the organism. Colonies are harvested with a sterile swab, and cell suspensions are prepared in Trypticase Soy broth (TSB) to equal the turbidity of a 0.5 McFarland standard. A 1:20 dilution of each suspension was made in TSB. The plates containing the drug supplemented agar are inoculated with a 0.001 ml drop of the cell suspension using a Steers replicator, yielding approximately 10^4 to 10^5 cells per spot. The plates are incubated overnight at 35° C. Following incubation the Minimum Inhibitory Concentration (MIC μg/ml), the lowest concentration of drug that inhibits visible growth of the organism, was read and recorded.

Row | Structure (SMILES) | MIC [µg/mL]
1 | CCOCC(=NO)c1ccc(C(=O)Nc2ccc(Cl)cc2C(=O)O)cc1 | 64 (≈ 170 µM)
2 | CC(=O)Oc1ccc(N2C(=O)c3ccc(C(=O)Nc4ccc(Br)cc4C(=O)O)cc3C2=O)cc1 | 64 (≈ 122 µM)
3 | O=C(Nc1ccc(Cl)cc1C(=O)O)c1ccc(C(=NO)C2CCCO2)cc1 (stereo not shown) | 32 (≈ 82.3 µM)
4 | COc1ccc(C(=O)Nc2ccc(Br)cc2C(=O)O)cc1S(=O)(=O)NCCc1ccc(N)cc1 | 128 (≈ 233 µM)
5 | O=C(Nc1ccc(Br)cc1C(=O)O)c1cccc(S(=O)(=O)NCCCn2ccnc2)c1 | 64 (≈ 126 µM)
6 | O=C(Nc1ccc(Br)cc1C(=O)O)c1ccc(S(=O)(=O)NC2Cc3ccccc3C2)cc1 | 32 (≈ 62.1 µM)
7 | CN(C)c1ccc(CNS(=O)(=O)c2cc(C(=O)Nc3ccc(Br)cc3C(=O)O)ccc2Br)cc1 | 64 (≈ 105 µM)
8 | CCN(Cc1ccncc1)S(=O)(=O)c1ccc(C(=O)Nc2ccc(Br)cc2C(=O)O)cc1 | 32 (≈ 61.7 µM)
9 | CN(C)c1ccc(CNS(=O)(=O)c2cccc(C(=O)Nc3ccc(Br)cc3C(=O)O)c2)cc1 | 64 (≈ 120 µM)
10 | Cc1ccc(C(=O)Nc2ccc(Br)cc2C(=O)O)cc1S(=O)(=O)NCc1ccc(N(C)C)cc1 | 128 (≈ 234 µM)
11 | CN(C)c1ccc(CNS(=O)(=O)c2ccc(Br)c(C(=O)Nc3ccc(Br)cc3C(=O)O)c2)cc1 | 16 (≈ 26.2 µM)
12 | Cc1ccc(C(=O)Nc2ccc(Br)cc2C(=O)O)cc1S(=O)(=O)N1CCc2ccccc21 | 1 (≈ 1.94 µM)
13 | CN(C)c1ccc(CNS(=O)(=O)c2ccc(C(=O)Nc3ccc(Br)cc3C(=O)O)cc2)cc1 | 128 (≈ 240 µM)
14 | O=C(Nc1ccc(Br)cc1C(=O)O)c1cc(S(=O)(=O)N2CCc3ccccc32)c(F)cc1Cl | 8 (≈ 14.4 µM)
15 | Cc1ccc(C(=O)Nc2ccc(Br)cc2C(=O)O)cc1S(=O)(=O)Nc1ccc(Cl)c2ccccc12 | 8 (≈ 13.9 µM)
16 | Cc1ccc(S(=O)(=O)Nc2ccc3c(c2)OCCO3)cc1C(=O)Nc1ccc(Br)cc1C(=O)O | 64 (≈ 117 µM)
17 | COc1ccc(C(=O)Nc2ccc(Br)cc2C(=O)O)cc1S(=O)(=O)N1CCc2ccccc21 | 4 (≈ 7.53 µM)
18 | O=C(Nc1ccc(Br)cc1C(=O)O)c1cc(S(=O)(=O)Nc2ccc3c(c2)OCCO3)ccc1Br | 0.5 (≈ 0.817 µM)
19 | Cc1ccc(C(=O)Nc2ccc(Br)cc2C(=O)O)cc1S(=O)(=O)Nc1ccc2c(c1)OCCO2 | 1 (≈ 1.83 µM)
20 | O=C(Nc1ccc(Br)cc1C(=O)O)c1ccc(S(=O)(=O)Nc2ccc3c(c2)OCCO3)cc1 | 16 (≈ 30 µM)
21 | COc1ccc(C(=O)Nc2ccc(Br)cc2C(=O)O)cc1S(=O)(=O)Nc1ccc2c(c1)OCCO2 | 8 (≈ 14.2 µM)
22 | O=C(Nc1ccc(Br)cc1C(=O)O)c1cccc(S(=O)(=O)Nc2ccc(N3CCOCC3)cc2)c1 | 32 (≈ 57.1 µM)
23 | O=C(Nc1ccc(Br)cc1C(=O)O)c1cccc(S(=O)(=O)Nc2ccc3c(c2)OCCO3)c1 | 4 (≈ 7.5 µM)

Row | Structure (SMILES) | MIC [µg/mL]
24 | CCN(CC)c1ccc(NS(=O)(=O)c2cc(C(=O)Nc3ccc(Br)cc3C(=O)O)ccc2C)cc1 | 64 (≈ 114 µM)
25 | COc1ccc(C(=O)Nc2ccc(Br)cc2C(=O)O)cc1S(=O)(=O)Nc1ccc(Cl)cc1 | 16 (≈ 29.6 µM)
26 | CCN(CC)c1ccc(NS(=O)(=O)c2cccc(C(=O)Nc3ccc(Br)cc3C(=O)O)c2)cc1 | 128 (≈ 234 µM)
27 | O=C(Nc1ccc(Br)cc1C(=O)O)c1ccc(S(=O)(=O)Nc2ccc(N3CCOCC3)cc2)cc1 | 64 (≈ 114 µM)
28 | Cc1ccc(C(=O)Nc2ccc(Br)cc2C(=O)O)cc1S(=O)(=O)N1CCc2ccc(Cl)cc21 | 1 (≈ 1.82 µM)
29 | CCN(CC)c1ccc(NS(=O)(=O)c2cc(C(=O)Nc3ccc(Br)cc3C(=O)O)ccc2Br)cc1 | 64 (≈ 102 µM)
30 | O=C(Nc1ccc(Br)cc1C(=O)O)c1cccc(S(=O)(=O)N2CCc3ccc(Cl)cc32)c1 | 2 (≈ 3.73 µM)
31 | CCN(CC)c1ccc(NS(=O)(=O)c2ccc(C(=O)Nc3ccc(Br)cc3C(=O)O)cc2)cc1 | 32 (≈ 58.6 µM)
32 | O=C(Nc1ccc(Br)cc1C(=O)O)c1ccc(S(=O)(=O)C2CCc3ccc(Cl)cc32)cc1 (stereo not shown) | 0.5 (≈ 0.935 µM)
33 | O=C(Nc1ccc(Br)cc1C(=O)O)c1cc(S(=O)(=O)N2CCc3ccc(Cl)cc32)ccc1Br | 2 (≈ 3.25 µM)
34 | O=C(Nc1ccc(Br)cc1C(=O)O)c1cc(F)ccc1F | 128 (≈ 359 µM)
35 | O=C(Nc1ccc(Br)cc1C(=O)O)c1cc(S(=O)(=O)N2CCc3ccc(Cl)cc32)c(F)cc1Cl | 16 (≈ 27.2 µM)
36 | O=C(Nc1ccc(Br)cc1C(=O)O)c1cccc(Br)c1 | 8 (≈ 20 µM)
37 | O=C(O)c1cc(Br)ccc1NC(=O)c1cccc2c1-c1ccccc1C2=O | 128 (≈ 303 µM)
38 | O=C(Nc1ccc(Br)cc1C(=O)O)c1cccc(Cl)c1 | 8 (≈ 22.6 µM)
39 | N#Cc1cccc(C(=O)Nc2ccc(Br)cc2C(=O)O)c1 | > 128
40 | CN(C)c1cccc(C(=O)Nc2ccc(Br)cc2C(=O)O)c1 | 32 (≈ 88.1 µM)
41 | O=C(Nc1ccc(Br)cc1C(=O)O)c1cccc(F)c1 | 64 (≈ 189 µM)
42 | COc1cc(C(=O)Nc2ccc(Br)cc2C(=O)O)cc(OC)c1OC | 32 (≈ 78 µM)
43 | O=C(Nc1ccc(Br)cc1C(=O)O)c1cc(Cl)cc(Cl)c1 | 8 (≈ 20.6 µM)
44 | CCOC(=O)Oc1c(OC)cc(C(=O)Nc2ccc(Br)cc2C(=O)O)cc1OC | 128 (≈ 273 µM)
45 | COc1ccc(C(=O)Nc2ccc(Br)cc2C(=O)O)cc1OC | 128 (≈ 337 µM)
46 | CCOc1cc(C(=O)Nc2ccc(Br)cc2C(=O)O)cc(OCC)c1OCC | 32 (≈ 70.7 µM)
